Assay results taken from patent US20240254103A9, “NOVEL PYRIMIDINE DERIVATIVE, AND COMPOSITION FOR PREVENTING OR TREATING NEURODEGENERATIVE DISEASES AND CANCER, COMPRISING SAME” (WHAN IN PHARMACEUTICAL CO., LTD., priority 2020, published 2024).

Biological target: T1, wild-type LRRK2 (Homo sapiens, UniProt Q5S007)
T1 construct: DNA tag for qPCR detection (not a peptide; the protein part that carries it is not described); made in house; host or cells: HEK 293 cells (the same paragraph also describes T7 phage grown in E. coli BL21)
T1 sequence (Q5S007 970-2527): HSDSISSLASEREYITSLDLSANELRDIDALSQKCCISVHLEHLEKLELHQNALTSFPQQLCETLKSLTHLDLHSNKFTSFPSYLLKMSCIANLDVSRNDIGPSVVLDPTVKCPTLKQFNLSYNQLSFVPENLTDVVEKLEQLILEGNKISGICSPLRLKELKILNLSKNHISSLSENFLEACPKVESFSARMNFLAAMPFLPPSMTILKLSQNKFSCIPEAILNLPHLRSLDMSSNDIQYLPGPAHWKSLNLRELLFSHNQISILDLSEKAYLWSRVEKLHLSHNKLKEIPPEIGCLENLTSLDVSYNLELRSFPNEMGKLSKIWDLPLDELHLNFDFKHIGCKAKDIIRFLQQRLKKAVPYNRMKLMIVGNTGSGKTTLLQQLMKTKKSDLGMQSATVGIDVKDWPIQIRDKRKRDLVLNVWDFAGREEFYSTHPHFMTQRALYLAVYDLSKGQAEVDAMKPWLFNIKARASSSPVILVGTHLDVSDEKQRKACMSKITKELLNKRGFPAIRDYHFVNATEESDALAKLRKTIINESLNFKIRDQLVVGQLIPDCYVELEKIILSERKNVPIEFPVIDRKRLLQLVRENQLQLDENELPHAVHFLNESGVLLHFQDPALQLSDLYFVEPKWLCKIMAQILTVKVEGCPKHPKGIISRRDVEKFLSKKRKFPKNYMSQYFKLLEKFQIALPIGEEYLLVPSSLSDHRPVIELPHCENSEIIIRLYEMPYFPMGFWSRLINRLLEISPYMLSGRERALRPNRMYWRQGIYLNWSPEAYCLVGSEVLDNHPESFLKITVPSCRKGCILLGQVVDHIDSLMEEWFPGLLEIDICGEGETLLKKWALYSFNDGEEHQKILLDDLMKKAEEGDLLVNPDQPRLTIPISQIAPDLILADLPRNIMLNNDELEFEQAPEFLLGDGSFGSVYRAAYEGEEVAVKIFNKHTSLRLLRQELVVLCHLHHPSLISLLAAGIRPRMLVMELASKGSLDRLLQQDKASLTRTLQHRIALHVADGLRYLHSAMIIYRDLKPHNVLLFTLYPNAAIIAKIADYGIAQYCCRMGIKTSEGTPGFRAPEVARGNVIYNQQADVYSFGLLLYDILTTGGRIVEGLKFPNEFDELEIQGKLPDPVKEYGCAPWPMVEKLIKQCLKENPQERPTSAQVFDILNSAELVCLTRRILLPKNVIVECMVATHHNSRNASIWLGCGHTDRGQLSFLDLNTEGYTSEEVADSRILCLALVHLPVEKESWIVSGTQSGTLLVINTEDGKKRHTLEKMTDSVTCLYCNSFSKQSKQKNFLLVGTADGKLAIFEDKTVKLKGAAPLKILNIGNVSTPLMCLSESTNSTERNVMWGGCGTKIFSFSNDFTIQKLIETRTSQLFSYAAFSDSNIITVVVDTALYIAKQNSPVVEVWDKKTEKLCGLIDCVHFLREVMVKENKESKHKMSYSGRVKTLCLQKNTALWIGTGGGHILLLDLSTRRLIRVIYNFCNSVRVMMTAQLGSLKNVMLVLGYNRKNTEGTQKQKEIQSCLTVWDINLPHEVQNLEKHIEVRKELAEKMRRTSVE
Assay: Inhibitory activity against LRRK2: competition binding to ligand-affinity beads, DNA-tagged kinase quantitated by qPCR
Conditions: % of ctrl; for remaining binding at 0.01 µM: 10 nM compound, read-out: LRRK2(WT) Remaining kinase activity(%) at 10 nM; for remaining binding at 0.05 µM: 50 nM compound, read-out: LRRK2(WT) Remaining kinase activity(%) at 50 nM
Method: Representative compounds synthesized in Example 1 were assayed for inhibitory activity against wild-type LRRK2 and mutant LRRK2 (G2019S), and the results are summarized in Tables 2 and 3. In brief, a T7 phase strain carrying the wild-type kinase consisting of amino acid residues from H970 to E2527 of human-derived LRRK2 (Accession no. NP_940980.3) or a T7 phase strain carrying the G2019S mutation kinase was infected into E. coli strain BL21 which was then grown until log phase. After infection with T7 phases (multiplicity of infection=0.4), the cells were cultured at 32° C. for 90-150 minutes while shaking. Then, E. coli lysates were centrifuged (6,000×g) and the supernatant was filtered through a 0.2-μm filter. The kinases were produced in HEK 293 cells. In this regard, DNA was tagged to obtain DNA-tagged kinases for qPCR detection. For use in analyzing the kinases, affinity resins were prepared by treating streptavidin-coated magnetic beads with biotinylated small molecule ligands at room temperature for 30 minutes. Then, the liganded beads were blocked with an excess of biotin and washed with a blocking buffer (SeaBlock (Pierce), 1% BSA, 0.05% Tween 20, 1 mM DTT) to remove unbound ligands and thus to reduce the binding of non-specific phages. […] After one hour of incubation, the affinity beads were washed with a wash buffer (1×PBS, 0.05% Tween 20), resuspended in an elution buffer (1×PBS, 0.05% Tween 20, 0.5 μM non-biotinylated affinity ligand), and incubated at room temperature for 30 minutes while shaking. Afterwards, concentrations of wild-type LRRK2 and mutant LRRK2 (G2019S) in the eluted samples were quantitated by qPCR. Activity values are expressed as percentages relative to the control (% of ctrl). The compounds used in the activity assay were prepared into 40× stocks in 100% DMSO. The stocks were directly diluted during analysis procedures.
Table 2 includes inhibitory activities of the representative compounds of the present disclosure at 100 nM against wild-type LRRK2 and mutant LRRK2 (G2019S) while Table 3 includes inhibitory activities of the representative compounds at 10 nM and 50 nM against wild-type LRRK2. (+++ less than 10%; ++ less than 30%; + less than 50%; −50% or higher)

Compound	remaining binding at 0.01 µM [%]	remaining binding at 0.05 µM [%]
COc1cc(C(=O)N2CCC(N(C)C)CC2)ccc1Nc1ncc(Cl)c(-c2cnn(C(C)C)c2)n1 [Compound 94, (4-((5-chloro-4-(1-isopropyl-1H-pyrazol-4-yl)pyrimidin-2-yl)amino)-3-methoxyphenyl)(4-(dimethylamino)piperidin-1-yl)methanone]	< 30	< 10
COc1cc(C(=O)N2[C@@H]3CC[C@H]2COC3)ccc1Nc1ncc(Cl)c(-c2cnn(C(C)C)c2)n1 [Compound 95, ((1R,5S)-3-oxa-8-azabicyclo[3.2.1]octan-8-yl)(4-((5-chloro-4-(1-isopropyl-1H-pyrazol-4-yl)pyrimidin-2-yl)amino)-3-methoxyphenyl)methanone]	≥ 50	< 30
COc1cc(C(=O)NC2CCN(C)CC2)ccc1Nc1ncc(Cl)c(-c2cnn(C(C)(C)C)c2)n1 [Compound 96, 4-((4-(1-(tert-butyl)-1H-pyrazol-4-yl)-5-chloropyrimidin-2-yl)amino)-3-methoxy-N -(1-methylpiperidin-4-yl)benzamide]	≥ 50	< 30
COc1cc(C(=O)N2CC3CN(C)CC3C2)ccc1Nc1ncc(Cl)c(-c2cnn(C(C)C)c2)n1 (stereo not shown) [Compound 98, (4-((5-chloro-4-(1-isopropyl-1H-pyrazol-4-yl)pyrimidin-2-yl)amino)-3-methoxyphenyl)(5-methylhexahydropyrrolo[3,4-c]pyrrol-2(1H)-yl)methanone]	< 30	< 10
COc1cc(C(=O)NC2CCN(C(C)C)CC2)ccc1Nc1ncc(Cl)c(-c2cnn(C(C)C)c2)n1 [Compound 99, 4-((5-chloro-4-(1-isopropyl-1H-pyrazol-4-yl)pyrimidin-2-yl)amino)-N-(1-isopropylpiperidin-4-yl)-3-methoxybenzamide]	< 50	< 30
COc1cc(C(=O)N(C)C)ccc1Nc1ncc(Cl)c(-c2cnn(C(C)C)c2)n1 [Compound 101, 4-((5-chloro-4-(1-isopropyl-1H-pyrazol-4-yl)pyrimidin-2-yl)amino)-3-methoxy-N,N-dimethylbenzamide]	≥ 50	< 50
COc1cc(C(=S)N2CCN(C)CC2)ccc1Nc1ncc(Cl)c(-c2cnn(C(C)C)c2)n1 [Compound 103, (4-((5-chloro-4-(1-isopropyl-1H-pyrazol-4-yl)pyrimidin-2-yl)amino)-3-methoxyphenyl)(4-methylpiperazin-1-yl) methanethione]	< 30	< 10
Cc1cc(C(=O)N2CCN(C)CC2)ccc1Nc1ncc(Cl)c(-c2cnn(C(C)C)c2)n1 [Compound 109, (4-((5-chloro-4-(1-isopropyl-1H-pyrazol-4-yl)pyrimidin-2-yl)amino)-3-methylphenyl)(4-methylpiperazin-1-yl)methanone]	≥ 50	< 30
COc1cc(C(=O)Nc2ccccc2)ccc1Nc1ncc(Cl)c(-c2cnn(C(C)C)c2)n1 [Compound 112, 4-((5-chloro-4-(1-isopropyl-1H-pyrazol-4-yl)pyrimidin-2-yl)amino)-3-methoxy-N-phenylbenzamide]	< 50	< 30
COc1cc(C(=O)NCc2ccc(C)cc2)ccc1Nc1ncc(Cl)c(-c2cnn(C(C)C)c2)n1 [Compound 126, 4-((5-chloro-4-(1-isopropyl-1H-pyrazol-4-yl)pyrimidin-2-yl)amino)-3-methoxy-N-(4-methylbenzyl)benzamide]	≥ 50	< 50
COc1cc(C(=O)NCC2CCOC2)ccc1Nc1ncc(Cl)c(-c2cnn(C(C)C)c2)n1 (stereo not shown) [Compound 130, 4-((5-chloro-4-(1-isopropyl-1H-pyrazol-4-yl)pyrimidin-2-yl)amino)-3-methoxy-N-((tetrahydrofuran-3-yl)methyl)benzamide]	≥ 50	< 30

Results, then the compound that gave them:

remaining binding at 0.01 µM [%]	remaining binding at 0.05 µM [%]	Compound
≥ 50	< 30	COc1cc(C(=O)NC2CCC(O)CC2)ccc1Nc1ncc(Cl)c(-c2cnn(C(C)C)c2)n1 (stereo not shown) [Compound 91, 4-((5-chloro-4-(1-isopropyl-1H-pyrazol-4-yl)pyrimidin-2-yl)amino)-N-((1r,4r)-4-hydroxycyclohexyl)-3-methoxybenzamide]
< 50	< 10	COc1cc(C(=O)NC2CCC(N(C)C)CC2)ccc1Nc1ncc(Cl)c(-c2cnn(C(C)C)c2)n1 (stereo not shown) [Compound 93, 4-((5-chloro-4-(1-isopropyl-1H-pyrazol-4-yl)pyrimidin-2-yl)amino)-N-(4-(dimethylamino)cyclohexyl)-3-methoxybenzamide]
< 50	< 10	COc1cc(C(=S)N2CCN(C)CC2)c(F)cc1Nc1ncc(Cl)c(-c2cnn(C(C)C)c2)n1 [Compound 102, (4-((5-chloro-4-(1-isopropyl-1H-pyrazol-4-yl)pyrimidin-2-yl)amino)-2-fluoro-5-methoxyphenyl)(4-methylpiperazin-1-yl) methanethione]
≥ 50	< 30	COc1cc(C(=O)N2CCN(C)CC2)c(F)cc1Nc1ncc(Cl)c(-c2cnn(C(C)C)c2)n1 [Compound 104, (4-((5-chloro-4-(1-isopropyl-1H-pyrazol-4-yl)pyrimidin-2-yl)amino)-2-fluoro-5-methoxyphenyl)(4-methylpiperazin-1-yl)methanone]
< 50	< 30	CC(C)n1cc(-c2nc(Nc3ccc(C(=O)N4CCOCC4)cc3OC(F)F)ncc2Cl)cn1 [Compound 105, (4-((5-chloro-4-(1-isopropyl-1H-pyrazol-4-yl)pyrimidin-2-yl)amino)-3-(difluoromethoxy)phenyl)(morpholino)methanone]
≥ 50	< 30	COc1cc(C(=S)N2CCOCC2)c(F)cc1Nc1ncc(Cl)c(-c2cnn(C(C)C)c2)n1 [Compound 106, (4-((5-chloro-4-(1-isopropyl-1H-pyrazol-4-yl)pyrimidin-2-yl)amino)-2-fluoro-5-methoxyphenyl)(morpholino) methanethione]
≥ 50	< 30	CC(C)n1cc(-c2nc(Nc3ccc(C(=O)N4CCN(C)CC4)cc3OC(F)F)ncc2Cl)cn1 [Compound 108, (4-((5-chloro-4-(1-isopropyl-1H-pyrazol-4-yl)pyrimidin-2-yl)amino)-3-(difluoromethoxy)phenyl)(4-methylpiperazin-1-yl)methanone]
< 50	< 10	COc1cc(C(=O)N2CCC(N(C)C)CC2)c(F)cc1Nc1ncc(Cl)c(-c2cnn(C(C)C)c2)n1 [Compound 110, (4-((5-chloro-4-(1-isopropyl-1H-pyrazol-4-yl)pyrimidin-2-yl)amino)-2-fluoro-5-methoxyphenyl)(4-(dimethylamino)piperidin-1-yl)methanone]
< 50	< 30	COc1cc(C(=O)Nc2ccc(N(C)C)cc2)ccc1Nc1ncc(Cl)c(-c2cnn(C(C)C)c2)n1 [Compound 127, 4-((5-chloro-4-(1-isopropyl-1H-pyrazol-4-yl)pyrimidin-2-yl)amino)-N-(4-(dimethylamino)phenyl)-3-methoxybenzamide]
≥ 50	< 50	COc1cc(C(=O)NCc2ccc(C#N)cc2)ccc1Nc1ncc(Cl)c(-c2cnn(C(C)C)c2)n1 [Compound 128, 4-((5-chloro-4-(1-isopropyl-1H-pyrazol-4-yl)pyrimidin-2-yl)amino)-N-(4-cyanobenzyl)-3-methoxybenzamide]
≥ 50	< 50	COc1cc(C(=O)NC2Cc3ccccc3C2)ccc1Nc1ncc(Cl)c(-c2cnn(C(C)C)c2)n1 [Compound 129, 4-((5-chloro-4-(1-isopropyl-1H-pyrazol-4-yl)pyrimidin-2-yl)amino)-N-(2,3-dihydro-1H-inden-2-yl)-3-methoxybenzamide]
≥ 50	< 50	COc1cc(C(=O)NCCO)ccc1Nc1ncc(Cl)c(-c2cnn(C(C)C)c2)n1 [Compound 138, 4-((5-chloro-4-(1-isopropyl-1H-pyrazol-4-yl)pyrimidin-2-yl)amino)-N-(2-hydroxyethyl)-3-methoxybenzamide]
